Experimental data: US20260042731A1, “(2,4-DICHLOROPHENOXY)ACETIC ACID ANALOGS” (CORTEVA AGRISCIENCE LLC, priority 2022, published 2026)
Read-outs that look alike come from different tables or passages of the source.

Columns and labels:
[1] = tested on: weeds (ABUTH, AMATA, AMBEL, CHEAL, ERICA); assay: Postemergence herbicide evaluation, overall average % weed control across ABUTH, AMATA, AMBEL, CHEAL, ERICA; assay type: in vivo; conditions: post-emergence, read-out: Overall Ave % Weed Control
[2] = Volatility of compounds measured by thermogravimetric analysis (TGA); assay type: physicochemical
[3] = tested on: Abutilon theophrasti (ABUTH), velvetleaf; assay: Postemergence herbicide evaluation, growth of Abutilon theophrasti (ABUTH); assay type: in vivo; conditions: Abutilon theophrasti, post-emergence, read-out: AVE. ABUTH
[4] = tested on: Ambrosia artemisiifolia (AMBEL), common ragweed; assay: Postemergence herbicide evaluation, growth of Ambrosia artemisiifolia (AMBEL); assay type: in vivo; conditions: Ambrosia artemisiifolia, post-emergence, read-out: AVE. AMBEL
[5] = tested on: glyphosate resistant Conyza canadensis (L.) (ERICA), horseweed; assay: Postemergence herbicide evaluation, growth of Conyza canadensis (ERICA); assay type: in vivo; conditions: Erigeron canadensis, post-emergence, read-out: Ave. ERICA
[6] = tested on: Amaranthus rudis (AMATA), tall water hemp; assay: Postemergence herbicide evaluation, growth of Amaranthus rudis (AMATA); assay type: in vivo; conditions: Amaranthus tuberculatus, post-emergence, read-out: Ave. AMATA
[7] = tested on: Chenopodium album (CHEAL), common lambsquarters; assay: Postemergence herbicide evaluation, growth of Chenopodium album (CHEAL); assay type: in vivo; conditions: Chenopodium album, post-emergence, read-out: Ave. CHEAL

For O=C(COc1ccc(Cl)cc1Cl)OCc1ccccc1 [Compound E4, Benzyl 2-(2,4-dichlorophenoxy)acetate], which pest or weed control at 280 g/ha ([1]; 168 h) is on record?
Its pest or weed control at 280 g/ha is 74%.

And the pest or weed control at 560 g/ha ([1]; 168 h)?
Its pest or weed control at 560 g/ha is 77%.

And the pest or weed control at 280 g/ha ([1]; 336 h)?
The pest or weed control at 280 g/ha was 84%.

What about the pest or weed control at 560 g/ha ([1]; 336 h) of the same compound?
The pest or weed control at 560 g/ha was 90%.

What about the pest or weed control at 280 g/ha ([1]; 504 h) of the same compound?
Its pest or weed control at 280 g/ha is 90%.

And the pest or weed control at 560 g/ha ([1]; 504 h)?
The pest or weed control at 560 g/ha was 92%.

And the “TGA Data (rate of weight loss, volatility)” value [2]?
Its value is 0.4 µg/min.

And the pest or weed control at 280 g/ha ([3]; 168 h)?
Its pest or weed control at 280 g/ha is 90%.

And the pest or weed control at 560 g/ha ([3]; 168 h)?
The pest or weed control at 560 g/ha was 90%.

What about the pest or weed control at 280 g/ha ([3]; 336 h) of the same compound?
Its pest or weed control at 280 g/ha is 97%.

And the pest or weed control at 560 g/ha ([3]; 336 h)?
The pest or weed control at 560 g/ha was 97%.

What about the pest or weed control at 280 g/ha ([3]; 504 h) of the same compound?
The pest or weed control at 280 g/ha was 99%.

What about the pest or weed control at 560 g/ha ([3]; 504 h) of the same compound?
Its pest or weed control at 560 g/ha is 98%.

What about the pest or weed control at 280 g/ha ([4]; 168 h) of the same compound?
The pest or weed control at 280 g/ha was 68%.

And the pest or weed control at 560 g/ha ([4]; 168 h)?
The pest or weed control at 560 g/ha was 73%.

What about the pest or weed control at 280 g/ha ([4]; 336 h) of the same compound?
The pest or weed control at 280 g/ha was 89%.

What about the pest or weed control at 560 g/ha ([4]; 336 h) of the same compound?
Its pest or weed control at 560 g/ha is 97%.

And the pest or weed control at 280 g/ha ([4]; 504 h)?
The pest or weed control at 280 g/ha was 99%.

And the pest or weed control at 560 g/ha ([4]; 504 h)?
The pest or weed control at 560 g/ha was 99%.

And the pest or weed control at 280 g/ha ([5]; 168 h)?
Its pest or weed control at 280 g/ha is 70%.

What about the pest or weed control at 560 g/ha ([5]; 168 h) of the same compound?
Its pest or weed control at 560 g/ha is 75%.

What about the pest or weed control at 280 g/ha ([5]; 336 h) of the same compound?
Its pest or weed control at 280 g/ha is 88%.

And the pest or weed control at 560 g/ha ([5]; 336 h)?
The pest or weed control at 560 g/ha was 93%.

What about the pest or weed control at 280 g/ha ([5]; 504 h) of the same compound?
Its pest or weed control at 280 g/ha is 95%.

And the pest or weed control at 560 g/ha ([5]; 504 h)?
The pest or weed control at 560 g/ha was 99%.

And the pest or weed control at 280 g/ha ([6]; 168 h)?
Its pest or weed control at 280 g/ha is 68%.

And the pest or weed control at 560 g/ha ([6]; 168 h)?
Its pest or weed control at 560 g/ha is 78%.

And the pest or weed control at 280 g/ha ([6]; 336 h)?
Its pest or weed control at 280 g/ha is 65%.

And the pest or weed control at 560 g/ha ([6]; 336 h)?
The pest or weed control at 560 g/ha was 93%.

What about the pest or weed control at 280 g/ha ([6]; 504 h) of the same compound?
The pest or weed control at 280 g/ha was 70%.

And the pest or weed control at 560 g/ha ([6]; 504 h)?
Its pest or weed control at 560 g/ha is 91%.

What about the pest or weed control at 280 g/ha ([7]; 168 h) of the same compound?
Its pest or weed control at 280 g/ha is 73%.

And the pest or weed control at 560 g/ha ([7]; 168 h)?
The pest or weed control at 560 g/ha was 70%.

What about the pest or weed control at 280 g/ha ([7]; 336 h) of the same compound?
The pest or weed control at 280 g/ha was 83%.

What about the pest or weed control at 560 g/ha ([7]; 336 h) of the same compound?
The pest or weed control at 560 g/ha was 73%.

What about the pest or weed control at 280 g/ha ([7]; 504 h) of the same compound?
Its pest or weed control at 280 g/ha is 88%.

What about the pest or weed control at 560 g/ha ([7]; 504 h) of the same compound?
The pest or weed control at 560 g/ha was 75%.

For O=C(COc1ccc(Cl)cc1Cl)Oc1ccc(Cl)cc1 [Compound E5, 4-Chlorophenyl 2-(2,4-dichlorophenoxy)acetate], which pest or weed control at 280 g/ha ([1]; 168 h, 280 g ae/ha, 7 DAA, average over the five weeds) is on record?
Its pest or weed control at 280 g/ha is 71%.

What about the pest or weed control at 560 g/ha ([1]; 168 h, 560 g ae/ha, 7 DAA, average over the five weeds) of the same compound?
Its pest or weed control at 560 g/ha is 75%.

And the pest or weed control at 280 g/ha ([1]; 336 h, 280 g ae/ha, 14 DAA, average over the five weeds)?
Its pest or weed control at 280 g/ha is 84%.

And the pest or weed control at 560 g/ha ([1]; 336 h, 560 g ae/ha, 14 DAA, average over the five weeds)?
The pest or weed control at 560 g/ha was 88%.

What about the pest or weed control at 280 g/ha ([1]; 504 h, 280 g ae/ha, 21 DAA, average over the five weeds) of the same compound?
The pest or weed control at 280 g/ha was 88%.

What about the pest or weed control at 560 g/ha ([1]; 504 h, 560 g ae/ha, 21 DAA, average over the five weeds) of the same compound?
Its pest or weed control at 560 g/ha is 93%.

And the “TGA Data (rate of weight loss, volatility)” value [2]?
Its value is 0.6 µg/min.

And the pest or weed control at 280 g/ha ([3]; 168 h)?
The pest or weed control at 280 g/ha was 78%.

And the pest or weed control at 560 g/ha ([3]; 168 h)?
The pest or weed control at 560 g/ha was 85%.

And the pest or weed control at 280 g/ha ([3]; 336 h)?
Its pest or weed control at 280 g/ha is 93%.

What about the pest or weed control at 560 g/ha ([3]; 336 h) of the same compound?
Its pest or weed control at 560 g/ha is 93%.

What about the pest or weed control at 280 g/ha ([3]; 504 h) of the same compound?
The pest or weed control at 280 g/ha was 98%.

And the pest or weed control at 560 g/ha ([3]; 504 h)?
The pest or weed control at 560 g/ha was 97%.

What about the pest or weed control at 280 g/ha ([4]; 168 h) of the same compound?
Its pest or weed control at 280 g/ha is 68%.

And the pest or weed control at 560 g/ha ([4]; 168 h)?
The pest or weed control at 560 g/ha was 75%.

And the pest or weed control at 280 g/ha ([4]; 336 h)?
The pest or weed control at 280 g/ha was 89%.

What about the pest or weed control at 560 g/ha ([4]; 336 h) of the same compound?
The pest or weed control at 560 g/ha was 93%.

And the pest or weed control at 280 g/ha ([4]; 504 h)?
The pest or weed control at 280 g/ha was 90%.

What about the pest or weed control at 560 g/ha ([4]; 504 h) of the same compound?
The pest or weed control at 560 g/ha was 98%.

And the pest or weed control at 280 g/ha ([5]; 168 h)?
Its pest or weed control at 280 g/ha is 68%.

And the pest or weed control at 560 g/ha ([5]; 168 h)?
Its pest or weed control at 560 g/ha is 70%.

What about the pest or weed control at 280 g/ha ([5]; 336 h) of the same compound?
The pest or weed control at 280 g/ha was 90%.

And the pest or weed control at 560 g/ha ([5]; 336 h)?
The pest or weed control at 560 g/ha was 83%.

And the pest or weed control at 280 g/ha ([5]; 504 h)?
The pest or weed control at 280 g/ha was 95%.

What about the pest or weed control at 560 g/ha ([5]; 504 h) of the same compound?
Its pest or weed control at 560 g/ha is 90%.

What about the pest or weed control at 280 g/ha ([6]; 168 h) of the same compound?
The pest or weed control at 280 g/ha was 73%.

What about the pest or weed control at 560 g/ha ([6]; 168 h) of the same compound?
Its pest or weed control at 560 g/ha is 78%.

What about the pest or weed control at 280 g/ha ([6]; 336 h) of the same compound?
The pest or weed control at 280 g/ha was 75%.

And the pest or weed control at 560 g/ha ([6]; 336 h)?
Its pest or weed control at 560 g/ha is 89%.

What about the pest or weed control at 280 g/ha ([6]; 504 h) of the same compound?
Its pest or weed control at 280 g/ha is 78%.

And the pest or weed control at 560 g/ha ([6]; 504 h)?
The pest or weed control at 560 g/ha was 86%.

And the pest or weed control at 280 g/ha ([7]; 168 h)?
The pest or weed control at 280 g/ha was 70%.

And the pest or weed control at 560 g/ha ([7]; 168 h)?
The pest or weed control at 560 g/ha was 68%.

What about the pest or weed control at 280 g/ha ([7]; 336 h) of the same compound?
The pest or weed control at 280 g/ha was 73%.

What about the pest or weed control at 560 g/ha ([7]; 336 h) of the same compound?
The pest or weed control at 560 g/ha was 83%.

What about the pest or weed control at 280 g/ha ([7]; 504 h) of the same compound?
Its pest or weed control at 280 g/ha is 80%.

And the pest or weed control at 560 g/ha ([7]; 504 h)?
The pest or weed control at 560 g/ha was 94%.
